The source of these data is patent US20020002171A1, “Materials and methods for killing nematodes and nematode eggs” (priority 2000, published 2002).

For the first experiment, the system named is Caenorhabditis elegans. As to the kind of experiment: C. elegans L1 nematicidal dose response in 96-well plates, 5 day visual score (Example 2; same procedure for Example 7, Table 3). Type of experiment: in vivo. The settings on record: 0.3 μM, C. elegans L1, scored day 5. The arrangement: key to 5 Day Visual Score V1 / 5 Day Visual Score V2 / 5 Day Visual Score V3 / 5 Day Visual Score V4 / 5 Day Visual Score V6 / 5 Day Visual Score V5 / Initial HTS Run Visual Score / Follow-up HTS Run Visual Score: Dead: only stiff L1s (no movement); Dead (L4): worms are dead, but at a later larval stage; majority of worms are L1 (based on size) worms move when plate is tapped; majority of worms are L2 (based on size); majority of worms are L3 (based on size); majority of worms are L4 (based on size); AD: majority of worms are adult; #AD: 5 adult worms or less; B!: sterile (0-25 progeny); B: low broodsize (25-100 progeny); ˜B: moderate broodsize (100-250 progeny); <: reduced broodsize (250-500 progeny); OK: no effect (˜1000+ progeny). The protocol:
Caenorhabditis elegans adults were grown on Nematode Growth Medium (NGM) until they produced eggs, then the adults were removed.
The eggs were allowed to hatch, and the L1 larvae collected. See The Nematode Caenorhabditis elegans (1988) Cold Spring Harbor Laboratory Press. Using a Matrix Programmable Pipette, the L1s were distributed into 96-well tissue culture plates, 20 L1 in 50 μl NGM per well. Antibiotic/Antimyoticwas added to each well, and 1% by weight E. coli strain HB101. The subject anthelmintic compounds were stored at 5 mM in 100% DMSO. 0.7 μl of compounds 1-31 were added to the left-most column of wells to yield a final concentration of 70 μM in 1.4% DMSO, with 1.4% DMSO only as the control. The compounds were then subjected to 5 more 3-fold dilutions from left to right to yield 6 column concentrations of 70 μM, 23.3 μM, 7.8 μM, 2.6 μM, 0.9 μM, and 0.3 μM. Plates were stored in air-tight Rubbermaid plastic boxes at 20° C. The nematodes had cleared all control wells by day 4, and nematode viability was scored by visual examination under a 100× dissecting microsope on day 5. A visual viability scoring system was used as follows:
Column V1 has a compound concentration of 70 μM with sequential 3-fold dilutions reported in columns V2, V3, V4, V5, and V6, respectively, such that the V6 concentration was 0.3 μM.
The nematicidal activity of anthelmintic Compositions 48-168 were determined in accordance with the procedure outlined in Example 2.
Consider `CCOc1cccc(C2ON=C(c3ccccc3OCC)C2C(=O)NCCc2ccc(OC)c(OCC)c2)c1` (stereo not shown) [AKC 124], for which the “5 Day Visual Score V6” value is listed as “L4/#AD/B”.
With `CCCCOc1ccc(C(=O)N2CC(OCCCc3ccccc3)CC2C(=O)NCc2ccccc2OC)cc1` (stereo not shown) [AKC 126], the “5 Day Visual Score V6” value is reported as “#AD/˜B”.
Take `Cc1ccc(C(CC(=O)c2ccccc2)Nc2ccc(I)cc2)o1` (stereo not shown) [AKC 128]: the “5 Day Visual Score V6” value is recorded as “OK (no effect (˜1000+ progeny))”.
Same read-out and setting: then `CCC(=O)C(C)C(Nc1cc(Br)c(C)c(Br)c1)c1ccc(C)o1` (stereo not shown) [AKC 131], with “< (reduced broodsize (250-500 progeny))”; and `CCCc1ccc(C(Nc2ccc(-c3ccccc3)cc2)C2CCCCC2=O)cc1` (stereo not shown) [AKC 132], with “Dead”.

Still in this experiment, the particulars now being: 0.9 μM, C. elegans L1, scored day 5.
Consider `O=C(NCCCCCc1nc(-c2ccccc2)no1)Nc1ccc(OC(F)(F)F)cc1` [AKC 115], for which the “5 Day Visual Score V5” value is on record as “Dead(L2/L”.
Regarding `CCOc1cccc(C2ON=C(c3ccccc3OCC)C2C(=O)NCCc2ccc(OC)c(OCC)c2)c1` (stereo not shown) [AKC 124], the “5 Day Visual Score V5” value was “L4/#AD/B”.
Turning to `CCCCOc1ccc(C(=O)N2CC(OCCCc3ccccc3)CC2C(=O)NCc2ccccc2OC)cc1` (stereo not shown) [AKC 126], the “5 Day Visual Score V5” value is given as “˜B (moderate broodsize (100-250 progeny))”.
`Cc1ccc(C(CC(=O)c2ccccc2)Nc2ccc(I)cc2)o1` (stereo not shown) [AKC 128]: the “5 Day Visual Score V5” value was “#AD/˜B”.
Same read-out and setting: then `Cc1ccc(C(CC(=O)c2ccccc2)Nc2ccc(I)cc2F)o1` (stereo not shown) [AKC 129], with “OK (no effect (˜1000+ progeny))”; and `Cc1ccc(C(CC(=O)c2ccc(C)c(C)c2)Nc2cc(Br)c(C)c(Br)c2)o1` (stereo not shown) [AKC 130], with “OK (no effect (˜1000+ progeny))”; and `CCC(=O)C(C)C(Nc1cc(Br)c(C)c(Br)c1)c1ccc(C)o1` (stereo not shown) [AKC 131], with “#AD/˜B”.

The same experiment, now with this note: 2.6 μM, C. elegans L1, scored day 5.
With `CCOc1ccccc1C1=NOC(c2cccc3ccccc23)C1C(=O)NCc1ccc(OC(F)(F)F)cc1` (stereo not shown) [AKC 105], the “5 Day Visual Score V4” value is on record as “L2/Dead(L”.
For `O=C(Nc1ccc(Br)cc1)N1CCC(c2nc(-c3ccccc3)no2)CC1` [AKC 108], the “5 Day Visual Score V4” value is reported as “L1”.
In the case of `O=C(NCCCCCc1nc(-c2ccccc2)no1)Nc1ccc(OC(F)(F)F)cc1` [AKC 115], the “5 Day Visual Score V4” value is listed as “Dead(L2)”.
On the same count and under the same terms, then `COc1ccc(C2=NOC(c3ccc(-c4ccccc4)cc3)C2C(=O)NCCc2ccccc2F)cc1` (stereo not shown) [AKC 121], with “#AD/˜B”; and `CCOc1cccc(C2ON=C(c3ccccc3OCC)C2C(=O)NCCc2ccc(OC)c(OCC)c2)c1` (stereo not shown) [AKC 124], with “L4/#AD/B”.
Take `CCOc1cccc(C2ON=C(c3ccccc3OCC)C2C(=O)NCc2ccc(OC(F)(F)F)cc2)c1` (stereo not shown) [AKC 125]: the “5 Day Visual Score V4” value is reported as “L2”.
On to `CCCCOc1ccc(C(=O)N2CC(OCCCc3ccccc3)CC2C(=O)NCc2ccccc2OC)cc1` (stereo not shown) [AKC 126], for which the “5 Day Visual Score V4” value is on record as “#AD/˜B”.
With `Cc1ccc(C(CC(=O)c2ccccc2)Nc2ccc(I)cc2)o1` (stereo not shown) [AKC 128], the “5 Day Visual Score V4” value was “L1”.
With `Cc1ccc(C(CC(=O)c2ccc(C)c(C)c2)Nc2cc(Br)c(C)c(Br)c2)o1` (stereo not shown) [AKC 130], the “5 Day Visual Score V4” value is “#AD/˜B”.
Consider `CCC(=O)C(C)C(Nc1cc(Br)c(C)c(Br)c1)c1ccc(C)o1` (stereo not shown) [AKC 131], for which the “5 Day Visual Score V4” value is on record as “#AD/˜B”.

The same experiment, now with this note: 7.8 μM, C. elegans L1, scored day 5.
For the compound `CCOc1ccccc1C1=NOC(c2cccc3ccccc23)C1C(=O)NCc1ccc(OC(F)(F)F)cc1` (stereo not shown) [AKC 105], the “5 Day Visual Score V3” value is given as “L2/Dead(L3)”.
For the compound `O=C(Nc1ccc(Br)cc1)N1CCC(c2nc(-c3ccccc3)no2)CC1` [AKC 108], the “5 Day Visual Score V3” value is listed as “L1”.
For `O=C(NCCCCCc1nc(-c2ccccc2)no1)Nc1ccc(OC(F)(F)F)cc1` [AKC 115], the “5 Day Visual Score V3” value is listed as “L2/Dead(L2)”.
Take `CCOc1cccc(C2ON=C(c3ccccc3OCC)C2C(=O)NCc2ccc(OC(F)(F)F)cc2)c1` (stereo not shown) [AKC 125]: the “5 Day Visual Score V3” value was “L2”.
Regarding `Cc1ccc(C(CC(=O)c2ccccc2)Nc2ccc(I)cc2)o1` (stereo not shown) [AKC 128], the “5 Day Visual Score V3” value was “Dead”.
With `CCC(=O)C(C)C(Nc1cc(Br)c(C)c(Br)c1)c1ccc(C)o1` (stereo not shown) [AKC 131], the “5 Day Visual Score V3” value was “#AD/˜B”.
As for `CCCc1ccc(C(Nc2ccc(-c3ccccc3)cc2)C2CCCCC2=O)cc1` (stereo not shown) [AKC 132], the “5 Day Visual Score V3” value is on record as “Dead”.

The experiment is the same for the next values; noted with them: 23.3 μM, C. elegans L1, scored day 5.
Take `CCOc1ccccc1C1=NOC(c2cccc3ccccc23)C1C(=O)NCc1ccc(OC(F)(F)F)cc1` (stereo not shown) [AKC 105]: the “5 Day Visual Score V2” value is recorded as “L2/Dead(L3)”.
As to `O=C(Nc1ccc(Br)cc1)N1CCC(c2nc(-c3ccccc3)no2)CC1` [AKC 108], the “5 Day Visual Score V2” value is reported as “Dead”.
In the case of `O=C(NCCCCCc1nc(-c2ccccc2)no1)Nc1ccc(OC(F)(F)F)cc1` [AKC 115], the “5 Day Visual Score V2” value is recorded as “Dead(L2/L3)”.
Consider `COc1ccc(C2=NOC(c3ccc(-c4ccccc4)cc3)C2C(=O)NCCc2ccccc2F)cc1` (stereo not shown) [AKC 121], for which the “5 Day Visual Score V2” value was “L1”.
As for `CCOc1cccc(C2ON=C(c3ccccc3OCC)C2C(=O)NCc2ccc(OC(F)(F)F)cc2)c1` (stereo not shown) [AKC 125], the “5 Day Visual Score V2” value is “L2/Dead(L4)”.
Consider `Cc1ccc(C(CC(=O)c2ccccc2)Nc2ccc(I)cc2)o1` (stereo not shown) [AKC 128], for which the “5 Day Visual Score V2” value was “Dead”.
As for `Cc1ccc(C(CC(=O)c2ccccc2)Nc2ccc(I)cc2F)o1` (stereo not shown) [AKC 129], the “5 Day Visual Score V2” value was “Dead”.
For `Cc1ccc(C(CC(=O)c2ccc(C)c(C)c2)Nc2cc(Br)c(C)c(Br)c2)o1` (stereo not shown) [AKC 130], the “5 Day Visual Score V2” value is given as “#AD/-B”.
The same measure, in the same setting: then `CCC(=O)C(C)C(Nc1cc(Br)c(C)c(Br)c1)c1ccc(C)o1` (stereo not shown) [AKC 131], with “L1”; and `CCCc1ccc(C(Nc2ccc(-c3ccccc3)cc2)C2CCCCC2=O)cc1` (stereo not shown) [AKC 132], with “Dead”.

The same experiment, now with this note: 70 μM, C. elegans L1, scored day 5.
Turning to `CCOc1ccccc1C1=NOC(c2cccc3ccccc23)C1C(=O)NCc1ccc(OC(F)(F)F)cc1` (stereo not shown) [AKC 105], the “5 Day Visual Score V1” value was “L2/Dead(L3)”.
In the case of `O=C(Nc1ccc(Br)cc1)N1CCC(c2nc(-c3ccccc3)no2)CC1` [AKC 108], the “5 Day Visual Score V1” value is “Dead”.
With `O=C(NCCCCCc1nc(-c2ccccc2)no1)Nc1ccc(OC(F)(F)F)cc1` [AKC 115], the “5 Day Visual Score V1” value is “Dead”.
Turning to `COc1ccc(C2=NOC(c3ccc(-c4ccccc4)cc3)C2C(=O)NCCc2ccccc2F)cc1` (stereo not shown) [AKC 121], the “5 Day Visual Score V1” value is recorded as “L1”.
With `CCOc1cccc(C2ON=C(c3ccccc3OCC)C2C(=O)NCc2ccc(OC(F)(F)F)cc2)c1` (stereo not shown) [AKC 125], the “5 Day Visual Score V1” value is listed as “L2/Dead(L3)”.
As to `Cc1ccc(C(CC(=O)c2ccccc2)Nc2ccc(I)cc2)o1` (stereo not shown) [AKC 128], the “5 Day Visual Score V1” value was “Dead”.
In the case of `Cc1ccc(C(CC(=O)c2ccccc2)Nc2ccc(I)cc2F)o1` (stereo not shown) [AKC 129], the “5 Day Visual Score V1” value was “Dead”.
As for `Cc1ccc(C(CC(=O)c2ccc(C)c(C)c2)Nc2cc(Br)c(C)c(Br)c2)o1` (stereo not shown) [AKC 130], the “5 Day Visual Score V1” value is recorded as “Dead”.
Regarding `CCC(=O)C(C)C(Nc1cc(Br)c(C)c(Br)c1)c1ccc(C)o1` (stereo not shown) [AKC 131], the “5 Day Visual Score V1” value is given as “Dead”.
Take `CCCc1ccc(C(Nc2ccc(-c3ccccc3)cc2)C2CCCCC2=O)cc1` (stereo not shown) [AKC 132]: the “5 Day Visual Score V1” value is on record as “Dead(L2)”.
